Laboratory results taken from ChEMBL document CHEMBL1148375, “Discovery of a bulky 2-tert-butyl group containing primaquine analogue that exhibits potent blood-schizontocidal antimalarial activities and complete elimination of methemoglobin toxicity” (J Med Chem, 2004).
Converted amounts (≈) assume the structure as drawn. The source made the active and inactive calls. The rule behind the calls is not given here.

Assays:
Format in all cases: functional, organism-based
Mus musculus [1] = assay: Compound was evaluated for the blood-schizonticidal antimalarial activity against Plasmodium yoelii nigeriensis (multidrug-resistant strain) in mice (Mus musculus) at 100 mg/kg/day x 4 (oral); indicates that the treated animals show positive parasitaemia either on D+4 orD+7 and usually die by D+14 (survival=0/6)
Mus musculus [2] = assay: Compound was evaluated for the blood-schizonticidal antimalarial activity against Plasmodium berghei (sensitive strain) in mice (Mus musculus) at 100 mg/kg/day x 4 (oral); indicates that the treated animals show positive parasitaemia either on D+4 or D+7 and usually dieby D+14 (survival=0/6)
Mus musculus [3] = assay: Compound was evaluated for the blood-schizonticidal antimalarial activity against Plasmodium berghei (sensitive strain) in mice (Mus musculus) at 10 mg/kg/day x 4 (oral); indicates that all of the treated animals show negative parasitaemia up to D+7 (survival=4/6)
Mus musculus [4] = assay: Compound was evaluated for the blood-schizonticidal antimalarial activity against Plasmodium yoelii nigeriensis (multidrug-resistant strain) in mice (Mus musculus) at 100 mg/kg/day x 4 (oral); indicates complete elimination of malaria parasites from the body, and animalssurvive up to day D
Mus musculus [5] = assay: Compound was evaluated for the blood-schizonticidal antimalarial activity against Plasmodium yoelii nigeriensis (multidrug-resistant strain) in mice (Mus musculus) at 50 mg/kg/day x 4 (oral); indicates that all of the treated animals show negative parasitaemia up to D+7(survival=4/6)
Mus musculus [6] = assay: Compound was evaluated for the blood-schizonticidal antimalarial activity against Plasmodium berghei (sensitive strain) in mice (Mus musculus) at 50 mg/kg/day x 4 (oral); indicates complete elimination of malaria parasites from the body, and animals survive up to day D+60 (survival=6/6)
Plasmodium falciparum [7] = assay: Inhibitory activity I50 against chloroquine-sensitive Plasmodium falciparum
Mus musculus [8] = assay: Compound was evaluated for the blood-schizonticidal antimalarial activity against Plasmodium berghei (sensitive strain) in mice (Mus musculus) at 100 mg/kg/day x 4 (oral); indicates complete elimination of malaria parasites from the body, and animals survive up to day D+60 (survival=6/6)
Mus musculus [9] = assay: Compound was evaluated for the blood-schizonticidal antimalarial activity against Plasmodium berghei (sensitive strain) in mice (Mus musculus) at 25 mg/kg/day x 4 (oral); indicates complete elimination of malaria parasites from the body, and animals survive up to day D+60 (survival=6/6)
Plasmodium falciparum [10] = assay: Inhibitory concentration against chloroquine-sensitive Plasmodium falciparum

With `COc1cc(NC(C)CCCN)c2ncccc2c1` (configuration not stated) the Antimalarial activity (Mus musculus [1]) was “inactive” and the Antimalarial activity (Mus musculus [2]) was “inactive”.

`COc1cc(NC(C)CCCN)c2nc(C(C)(C)C)ccc2c1` (configuration not stated) was tested, and the Antimalarial activity (Mus musculus [3]) was “Active”, the Antimalarial activity (Mus musculus [4]) was “Curative” and the Antimalarial activity (Mus musculus [5]) was “Active”. The Antimalarial activity (Mus musculus [6]) was “Curative”, the IC50 (Plasmodium falciparum [7]) was 0.0391 µg/mL (≈ 0.124 µM) and the Antimalarial activity (Mus musculus [8]) was “Curative”. The Antimalarial activity (Mus musculus [9]) was “Curative”.

In the case of `COc1cc(NC(C)CCCN)c2nc(C34C[C@H]5C[C@@H](C3)C[C@@H](C4)C5)ccc2c1` (some centres not stated), the Antimalarial activity (Mus musculus [1]) is reported as “inactive”, the IC50 (Plasmodium falciparum [10]) is reported as > 0.5 µg/mL and the Antimalarial activity (Mus musculus [2]) is reported as “inactive”.
